The source of these data is US5091379A, “Topical antinflammatory compositions with minimal systemic absorption” (Du Pont Merck Pharmaceutical Company, priority 1989, dated 1992).

Several values for one entry are separate records, joined by “and”; a condition that tells them apart may be missing. Equal values may be shown once.

Data set [1] can be described thus: In vivo absorption: excretion of radioactivity in rat urine and feces. On the set-up: species or system Male Sprague-Dawley rats. As to conditions: for Percent of Dose Excreted in Feces / Percent of Dose Excreted in Urine / Percent of Dose Excreted, Total: IV 5 mg/kg. As for the experimental part:
Approximately 10 mg of 14C-2-phenylmethyl-1-naphthol and 4.99 g of unlabeled 2-phenylmethyl-1-naphthol were used in the preparation of a 100 g 5% ointment or cream. The ointment was a PEG-based ointment and the cream was an oil-in-water emulsion. The specific activities for the ointment and cream were 2.71 and 2.78 uCi/g, respectively. An IV dosing solution (2.5 mg/mL) was prepared prior to dose administration by dissolving radiolabeled 14C-2-phenylmethyl-1-naphthol and unlabeled compound (1:1.5 ratio) in a PEG 400/water (60/40 v/v) solution.
Male Sprague-Dawley rats weighing 240-300 g were used for the studies. Sixteen rats were shaved on the back one day prior to the treatment. Eight of the rats had the application site abraded by a diamond-tipped marker (2 parallel lines and 2 interceding lines). The abrasion penetrated only the stratum corneum, but not the dermis. A 0.5 g dose of 14C-2-phenylmethyl-1-naphthol ointment or cream was applied to an area of approximately 4 cm^2 on 4 nonabraded and 4 abraded rats. The treatment site was covered with gauze and occluded with a dental dam. It was further secured by micropore tape and a strip of adhesive elastoplast. Each rat was placed in an open metabolism cage. […] Four other rats weighing 270-320 g were given an intravenous dose.
In order to determine the percent of dose in the ointment or cream that was absorbed percutaneously into the systemic circulation, an IV dose of 14C-2-phenylmethyl-1-naphthol was given to rats. The total radioactivity excreted after the IV dose serves as a reference for evaluation of topical absorption. […] The reason for the low radioactivity recovery is unknown. The percutaneous absorption from the ointment was about 2% of the applied dose. On the other hand, absorption from the cream was much higher and was about 28% of the dose.

The nature of data set [2]: In vitro penetration through (inflammed) hairless mouse skin. It is filed as in vitro ADME. As to conditions: Study I, 25 mg/0.1 ml acetone. As for the experimental part: The acetone vehicles were allowed to dry. […] The donor chamber was sealed with parafilm.
Studies were performed in which skin inflammation was induced in hairless mice in vivo, and permeability of that skin was evaluated in vitro. The three studies differed in the methods of producing inflammation. A non-inflammed control was run for each. The formulations tested were the oil/water cream and PEG ointment containing excipients (See Table 2) as in the previous example. There was no difference between the control and inflammed skin in active compound flux in all studies and for all formulations, except study II with 5% cream. […] As with human skin, acetone and cream vehicles consistently gave higher skin penetration rates than the PEG ointment.

The subject of data set [3] is AA-induced edema. Put plainly: AA-induced ear edema, topical antiinflammatory activity. It is filed as in vivo, Male CF1 mice. Conditions: for % Inhibition: 3 h pretreatment. As for the experimental part:
The AA model was also used to evaluate and compare PEG ointment formulations containing 2-phenylmethyl-1-naphthol with oil/water cream formulations containing 2-phenylmethyl-1-naphthol. These comparisons are illustrated in Examples 5 to 7.
Male 18-20 gram CF1 mice were used in these experiments. AA was made up fresh daily in acetone at a concentration of about 100 mg/ml. 10 μl of the AA solution (1 mg AA) was applied to the inner surface of the ear to induce swelling. […] Control animals were pretreated about 3 hours before AA application with placebo vehicles (drug free ointment or cream) with 5 mg of vehicle applied to both ears. Drug-treated animals were pretreated about 3 hours before AA application with 5 mg of the vehicle containing active drug, applied to both ears. AA was applied to 1 ear of each mouse. One hour after AA challenge, the animals were euthanized by cervical dislocation and both ears were removed. 6 mm disks were then taken using a skin biopsy punch and weighed. Swelling was determined as the difference between the weights of the AA and vehicle treated ears. Percent inhibition of swelling was calculated as follows: [formula]
Table 7 summarizes the data for PEG ointment and oil/water cream formulations containing various concentrations of active compound. Each data point is the average of 2 experiments with 10 animals per treatment cell.

Data set [4] has as its system 5-lipoxygenase. As to conditions: cited from earlier work.
The nature of data set [5]: Hydrolysis of 2 to 3 in solution and during skin penetration. It is filed as physicochemical.

With `Oc1c(Cc2ccccc2)ccc2ccccc12` [14C-1, 14C-2-phenylmethyl-1-naphthol], in data set [1] (individual rats, 5 mg/kg), the “Percent of Dose Excreted in Feces” value is 38.86% and 38.32% and 40.39% and 37.91%; the “Percent of Dose Excreted in Urine” value is 8.55% and 7.84% and 8.96% and 8.74%; the “Percent of Dose Excreted, Total” value was 47.41% and 46.16% and 49.35% and 46.65%. For the same compound, in data set [1] (mean of 4 rats), the “Percent of Dose Excreted in Feces” value was found to be 38.87%; the “Percent of Dose Excreted in Urine” value stood at 8.52%; the “Percent of Dose Excreted, Total” value amounted to 47.39%. In addition, in data set [1] (from PEG ointment, percent of applied dose), the percutaneous absorption result is recorded as “about 2%”. In addition, the percutaneous absorption entry in data set [1] (from cream, percent of dose) is recorded as “about 28%”. Moreover, the “detectable radioactivity in the urine” value in data set [1] (topical ointment or cream, daily collection) is “no detectable radioactivity was found in the urine”.

In general, % Inhibition refers to how much of the control response was suppressed. For `Oc1c(Cc2ccccc2)ccc2ccccc12` [compound 1, 2-(phenylmethyl)-1-naphthol], the “Lag Time” value worked out at 13.8 ± 1.3 h in data set [2] (AA inflammed skin) and 10.8 ± 1.7 h in data set [2] (control skin). Moreover, the “% Inhibition” value in data set [3] (PEG ointment, 0.5% 1) turned out to be 15%; in data set [3] (PEG ointment, 1% 1) it was 62%; in data set [3] (PEG ointment, 5% 1) it was 70%; in data set [3] (PEG ointment, 10% 1), 90%; in data set [3] (cream, 0.5% 1), 26%; in data set [3] (cream, 1% 1), 60%. Further, the “% Inhibition” value in data set [3] (cream, 5% 1) is reported as 86%; in data set [3] (cream, 10% 1) it was 87%. In data set [3] (mouse, in vivo), the “inhibiting the edema induced by topical arachidonic acid” value is recorded as “very potent in inhibiting the edema”. For the same compound, in data set [4], the “inhibition of 5-lipoxygenase” value is given as “exceptionally potent inhibitors of 5-lipoxygenase”.

`CC(=O)Oc1c(Cc2ccccc2)ccc2c1ccn2C` [compound 2, 1-methyl-4-acetoxy-5-phenylmethyl indole]: in data set [5], the hydrolysis result is on record as “hydrolyzes to 1-methyl-4-hydroxy-5-phenylmethyl indole (3)”.
